For experiment [1], the system named is canker sores (aphthous ulcers). Conditions: topical application, reported in literature; cited from earlier work.
Experiment [2] concerns canker sores (aphthous ulcers). The experiment is described as follows: Inventor's trials of oral patches with licorice root extract or amoxicillin on canker sores. Type of experiment: in vivo, human. Here is the method:
For medication to be placed in the patch, any of the above-mentioned antimicrobials, or similar antimicrobials, may be used. […] A preferred quantity of licorice extract in each patch that lasts 1 to 6 hours is 20 to 95 milligrams.
In the testing, conventional amoxicillin powder for preparation of oral suspension was used, which includes sugars and other excipients. The sugars act as a binder to the sponge of the oral patch. The oral suspension is massaged into the patch and dried. Preferably, the amoxicillin powder is mixed into a stronger than normal liquid form before being added to the patch.

penicillin: the “healing of canker sores” value in experiment [1] is “shown to speed healing of canker sores”. Regarding `OO` [hydrogen peroxide], the “healing of canker sores” value in experiment [1] was “reported to speed healing of canker sores”. `CN(C)CCOC(c1ccccc1)c1ccccc1` [diphenhydramine]: in experiment [1], the “healing of canker sores” value was “reported to speed healing of canker sores”. With `CC1(C)S[C@@H]2[C@H](NC(=O)[C@H](N)c3ccc(O)cc3)C(=O)N2[C@H]1C(=O)O` [amoxicillin], in experiment [2] (amoxicillin powder for oral suspension on conventional patches), the “effectiveness on canker sores” value is given as “works quite well”. Besides, the “typical duration of each canker sore” value in experiment [2] (in a patch applied for half of the hours, day and night, typically 10-14 days without treatment) is given as roughly 2 days. Besides, the “results of treatment of canker sores” value is “nearly always effective” in experiment [2] (patch keeping medication on or near the sore about half of the hours in a day over 2 days) and “nearly always ineffective” in experiment [2] (troche, gel, paste or liquid applied six times per day for 2 days). The “healing of canker sores” value in experiment [1] is “shown effective”.

For the molecule `NC(N)=O.OO` [carbamide peroxide], the “healing of canker sores” value in experiment [1] is reported as “reported to speed healing of canker sores”. Consider `N=C(NCCCCCCNC(=N)NC(=N)Nc1ccc(Cl)cc1)NC(=N)Nc1ccc(Cl)cc1.O=C(O)[C@H](O)[C@@H](O)[C@H](O)[C@H](O)CO.O=C(O)[C@H](O)[C@@H](O)[C@H](O)[C@H](O)CO` [chlorhexidine gluconate], for which the “healing of canker sores” value in experiment [1] was “reported to speed healing of canker sores”.

The record behind these values is patent publication US20040156930A1, “Treating mouth ulcers with patches to speed healing and relieve pain” (priority 2002, published 2004).
